In PMC8302598, “Rapid discovery of self-assembling peptides with one-bead one-compound peptide library” (Nature Communications, 2021):

Columns and labels:
[1] = Fluorescent-activation screening assay on OBOC beads (NBD); type: physicochemical; details: peptide N-terminally capped with NBD on TentaGel S beads, in water, fluorescence microscope
From the text: It is well known that Aβ16–20 peptide sequence KLVFF can self-assemble into nanofibers in water. We, therefore, chose it as a model peptide to test our screening strategy and used KAAGG as the non-assembling negative control. These control peptides, N-terminally capped with NBD were synthesized with standard Fmoc-chemistry, and TentaGel S resin beads as solid support but without any cleavable linker. After side-chain deprotection, the beads were thoroughly washed with DMF, which was replaced stepwise with water or methanol and then examined under a fluorescent microscope. […] This is expected as the hydrophobicity-sensitive fluorescence dye NBD would fluoresce brightly under hydrophobic condition, in this case, methanol. In water, we expect fluorescent signal emitted from non-sequestered NBD to diminish, unless it is buried inside a hydrophobic environment such as within peptide aggregates or β-sheets formed by KLVFF peptides.
Once the screening method has been validated with our model KLVFF peptide, a totally random pentapeptide library with 19[5] permutations (cysteine was omitted from the library) was constructed using our previously published methods (Supplementary Fig. 3)[23]. Again, TentaGel S resin (loading of 0.31 mmol/g) was used as the solid support. The pentapeptides in the library were N-terminally capped with NBD. […] The positive bead with an intense fluorescent signal (pointed with a solid arrow) was noted. The rest of the beads were considered negative or weak positive beads. From a total of approximately 100 000 beads screened, we selected a total of eight strongest fluorescent positive beads and four dark beads as negative beads. The peptides were then resynthesized in soluble form and purified by high-performance liquid chromatography (HPLC) for testing (Supplementary Figs. 4–12). The amino acid sequences of the eight self-assembling pentapeptides are FTISD, ITSVV, YFTEF, ISDNL, LDFPI, FAGFT, FGFDP, and FFVDF. Not unexpectedly, of the 40 amino acids in these eight pentapeptides, 50% are hydrophobic residues, predominated by Phe (11 Phe, 4 Ile, 3 Val, and 2 Leu). For the remaining 20 amino acids, six are acidic residues (5 Asp and 1 Glu) and seven are neutral and hydrophilic (4 Thr and 3 Ser). The rest are 2 Pro, 2 Gly, 1 Tyr, 1 Asn, and 1 Ala. All eight peptides have at least two hydrophobic residues. Six out of the eight peptides have one negatively charged residue (Asp or Glu). The remaining two peptides are neutral. […] For the Pro containing pentapeptides, LDFPI and FGFDP, the Pro residue, which promotes peptide turns, resides at the fourth and fifth positions, but not in the middle. Not unexpectedly, all the four randomly selected negative non-assembling peptides (RITTR, PLVKA, PFTTR, and QIMRW) have very different sequences, and contain at least one positive charged amino acid.
The OBOC pentapeptide libraries (19[5]) were built using Fmoc strategy SPPS (solid-phase peptide synthesis) (Supplementary Fig. 3). TentaGel S Resin (named N-beads with loading 0.31 mmol/g) was used as the solid phase support. The pentapeptide sequence of X1 X2 X3 X4 X5 was constructed in the library, in which X1−X5 represents either Ala, Asp, Glu, Phe, Gly, His, Ile, Lys, Leu, Met, Asn, Pro, Gln, Arg, Ser, Thr, Val, Trp, and Tyr residues. During the synthesis of OBOC library, solid support beads were mixed and split equally in each cycle, then different amino acids were added, separately, the process was repeated four times. The synthesis of peptides was used anhydrous DMF as solvent. The Fmoc group was removed by 20% (v/v) piperidine in DMF and the deprotection time was 10 min twice. During the coupling step, the HBTU (4 mM) and Fmoc-amino acid (4 mM) were dissolved in DMF containing NMM (0.4 mM). The coupling time was 50 min. Qualitative Fmoc deprotection and coupling were confirmed by ninhydrin test. All the above experiments were carried out in the solid phase peptide synthesis vessels with sieves in it. […]

[2] = TEM morphology and size of peptide nano-assemblies over time; type: physicochemical; details: for Initial nanostructure (TEM): DMSO stock 5 mM diluted 100X with water, 50 μM (legend: 40 μM), 1% DMSO, fixed immediately (0 h); for Nanoparticle size by TEM, 0 h / Nanoparticle size by TEM, 4 h: H2O with 1% DMSO, 40 μM / 50 μM
From the text: Self-assembling peptides with good biocompatibility may be used to construct nanocarriers for drug delivery. We recently reported the use of FFVLK, the reverse sequence of KLVFF, as a self-aggregating β-sheet forming domain for the delivery of HER2 targeting peptides for successful treatment of breast cancer in xenograft models. Such FFVLK containing peptide is able to self-assemble into nanoparticles. Upon intravenous administration, the FFVLK-nanoparticle was able to transform into nanofibrillar network when encountering HER2 at the tumor sites. To investigate the morphology of the nano-assembly formed by the eight self-assembling peptides, we dissolved each of these peptides in DMSO (5 mM) and then diluted them 100X with water at a final peptide concentration of 50 μM to induce spontaneous self-assembly. Each sample was fixed immediately after peptide solution preparation and at 4 h time point for subsequent TEM processing and analysis. As clearly shown in Fig. 4a, all eight self-assembling peptides initially formed some nanostructures: nanoparticles for ITSVV, YFTEF, ISDNL, LDFPI, FAGFT, FGFDP, and FTISD; nanofibers for FFVDF. […] LDFPI (8 nm) maintained the particulate morphology without changing of diameter in 4 h. FFVDF formed nanofibers at 0 and 4 h. […] Time-dependent size variations of pentapeptides in water were further confirmed by DLS spectra (Supplementary Fig. 18). The initial diameters of nanoparticles formed by seven pentapeptides were larger than that observed by TEM, probably due to hydration radius. The size of the nanostructure increased over time, correlating well with the morphologic transformation. […] Circular dichroism (CD) was used to monitor the secondary structures of the nano-assembly of the eight self-assembling peptides over time (Supplementary Fig. 20).
Pentapeptides monomers were dissolved in DMSO at a concentration of 5.0 mM, followed by quick injection into water at a volume ratio of 1:99 for DMSO and H2O to obtain the nanomaterials solution (50 μM). For 30 mM pentapeptide solution, the pentapeptide was dissolved in water and sonicated for 3 min.
The pentapeptide solution with the concentration of 20 μM (10 μL) was placed dropwise onto a copper mesh for 5 min, then most of the liquid was removed through a filter paper. Ten microliters of uranyl acetate solution were employed to stain the samples for 5 min, followed by drying the spare liquid with the filter. Finally, the copper mesh was washed with 10 μL of deionized water, which was blotted after staining and drying at room temperature. All of the samples were observed by TEM (Tecnai G2 20 S-TWIN) at an accelerating voltage of 200 kV.

Row | Substance | Fluorescence (beads) [1] | Initial nanostructure (TEM) [2] | Nanoparticle size by TEM, 0 h [2] [nm] | Nanoparticle size by TEM, 4 h [2]
1 | LDFPI [self-assembling pentapeptide identified from OBOC library] | On | nanoparticles | 8 | 8 nm
2 | ISDNL [self-assembling pentapeptide identified from OBOC library] | On | nanoparticles |  | 
3 | FFVDF [self-assembling pentapeptide identified from OBOC library, forms nanofibers] | On | nanofibers |  | 

Next, values leading:

Row | Fluorescence (beads) [1] | Initial nanostructure (TEM) [2] | Nanoparticle size by TEM, 0 h [2] [nm] | Nanoparticle size by TEM, 4 h [2] | Substance
4 | On | nanoparticles | 10 | 15 nm | FAGFT [self-assembling pentapeptide identified from OBOC library]
5 | On | nanoparticles | 41 | 75 nm | YFTEF [self-assembling pentapeptide identified from OBOC library]
6 | On | nanoparticles |  |  | FTISD [self-assembling pentapeptide identified from OBOC library]
7 | On | nanoparticles |  | ~ 300 nm | ITSVV [self-assembling pentapeptide identified from OBOC library]
8 | On | nanoparticles |  |  | FGFDP [self-assembling pentapeptide identified from OBOC library]
